Measured values published in patent US20100028395A1, “COMPOSITIONS CONTAINING N-ACETYLGLUCOSAMINE FOR USE IN DERMO-COSMETOLOGY AND AESTHETIC MEDICINE” (ROTTAPHARM S.P.A., priority 2007, published 2010).

Key:
[1] = tested on: primary culture of human keratinocytes (HEKA); experiment: MTT cytotoxicity test on keratinocytes; assay type: cell-based; settings: positive control, 0.5 mg/ml SDS
From the text: (§1) For this purpose the cell viability test using MTT (3-[4,5-dimethylthiazol-2-yl]-2,5-diphenyl tetrazolium bromide) [Mossman 1993] a colourimetric reagent, by means of which it is possible to distinguish between living, damaged or dead cells, being thus predictive of the safety of use of test substances, even “in vivo”, has been selected.
(§2) The following have been used: • human fibroblasts, Detroit 551 ATCC CCL III from LGC Promochem (Milan, Italy); • primary culture of human keratinocytes (HEKA), Cascade Biologics, cat.-005-5c.
(§3) In the study in question, CA has been previously dissolved and brought into contact with the selected cell cultures in such a manner as to directly reach the desired concentrations, i.e.: […]
(§4) As already mentioned, the key reagent is MTT, a yellow-coloured substance in aqueous solution which, when acted-on by the mitochondrial dehydrogenases present in viable cells, is transformed into purple crystals, insoluble in water, but soluble in acidified isopropanol. The absorbance of the resulting purple solution at […] is used as an indicator of the level of cytotoxicity of the substances under test.
(§5) In operational terms, the key reagent is prepared by adding 15 mg of MTT to 30 ml of culture medium. […] The plates are shaken for 20-30 minutes until a homogenous solution is formed, the absorbance of which is then read at […] with a background reading at 670 nm. […]

[2] = tested on: Human fibroblasts, Detroit 551 ATCC CCL III; experiment: MTT cytotoxicity test on fibroblasts; assay type: cell-based; settings: positive control, 0.5 mg/ml SDS
From the text: as §1, §2, §3, §4, §5

[3] = exogenous hyaluronic acid, non cross-linked; cited from earlier work
mouse skin fibroblasts = settings: addition of HA to primary cultures; cited from earlier work
[4] = tested on: extracellular matrix metalloproteases; settings: HA 1 mg/ml; cited from earlier work
[5] = tested on: Human fibroblasts, Detroit 551 ATCC CCL III; experiment: Stimulation of HA synthesis in human fibroblast cultures (EIA HA assay); assay type: cell-based; settings: 48 h
From the text: The test has been conducted in two stages, i.e.: • stage A: in which the stimulation of HA expression by COMBI has been evaluated while maintaining the concentration constant and varying the reciprocal quantities of its components. The concentration used has been selected so as to enable comparison with the results derived from stage B; • stage B: in which the effect of CA on HA expression has been evaluated by varying its concentration and in comparison with doses consistent with its components. […] Human fibroblasts have been grown in suitable growth medium (Eagle's minimal essential medium) supplemented with 10% foetal calf serum (FCS), 1 mM sodium pyruvate, 2 mM glutamine, non-essential aminoacids and 50 μg/ml glutamycin. […] After 48 hours, the supernatant has been removed and used for the determination of the parameters of interest. The test has been conducted in duplicate and untreated cell cultures have been used as controls. HA has been assayed (dosed) by means of an immuno-enzymatic test using a commercially available kit (EIA, Corgenix). De novo HA synthesis has been evaluated in the culture medium following treatment with the test substances, according to the protocol provided with the test, and against the calibration curve obtained using the HA standard contained in the kit. […] • evaluation of the effects of the substances tested, at the various concentrations, on fibroblast cultures has been expressed as the absolute and percent increase or decrease of the HA expression, with respect to the corresponding control culture, after 48 hours of incubation. The percentage difference increase or decrease of the effects exerted by CA and NAG, at corresponding concentrations, have then been calculated, with evaluation of their potential significance by means of the Student's “t” test.

[6] = tested on: Human fibroblasts, Detroit 551 ATCC CCL III; experiment: Stimulation of elastin synthesis in human fibroblast cultures (Fastin assay); assay type: cell-based; settings: 24 h
From the text: The scope of the test has been the evaluation and the comparison of the potential stimulation exerted by the test substances on the expression of collagen and elastin in “in vitro” cultures of skin-derived cells, such as fibroblasts. The test in question, even though conducted “in vitro”, can be considered to be predictive of the effects of use of the same substances “in vivo”.
Human fibroblasts, Detroit 551 ATCC CCL III from LGC Promochem (Milan, Italy) have been used.
The substances and concentrations tested have been the same as those already described for stage B of the test on the stimulation of HA expression, i.e.: • CA: 0.66, 1.32, 1.98, 2.64 and 3.3 mg/ml • NAG: 0.5, 1.0, 1.5, 2.0 and 2.5 mg/ml • ASS: 0.16, 0.32, 0.48, 0.64 and 0.80 mg/ml
Cells have been plated out in 96 well plates, 2500 cells/well for 24 hours in cell growth medium ([…], DMEM)+10% foetal calf serum (FCS). Fresh culture medium, enriched with just 5% FCS and containing the substances to be tested, so as to reach the final concentrations desired, has then been added. The samples have been dissolved directly in the culture medium. Each sample has been tested in duplicate and the experiments have been repeated twice. The parameters of interest have been determined after 24 hours on separate plates. Untreated cell cultures have been used as controls.
Elastin has been assayed using a commercially available test (Fastin™, biodye science). The assay is based on the interaction of 5,10,15,20-tetraphenyl-21,23-porphyrin with elastin molecules.
De novo elastin synthesis has been evaluated in the culture medium following treatment with the test substances, following the protocol provided with the test, and by using the calibration curve obtained employing the elastin standard contained in the kit itself.
Evaluation of the effects of the substances tested, at the various concentrations, on fibroblast cultures, has been expressed as the absolute and percent increase or decrease of collagen and elastin expression, with respect to the corresponding control culture, after 24 hours of incubation.
The percentage difference increase or decrease of the effects exerted by CA and NAG, at corresponding concentrations, have then been calculated, with consequent evaluation of their potential statistical significance by means of the test Student “t” test.

[7] = tested on: Human fibroblasts, Detroit 551 ATCC CCL III; experiment: Stimulation of collagen synthesis in human fibroblast cultures (Sircol assay); assay type: cell-based; settings: 24 h
From the text: The scope of the test has been the evaluation and the comparison of the potential stimulation exerted by the test substances on the expression of collagen and elastin in “in vitro” cultures of skin-derived cells, such as fibroblasts. The test in question, even though conducted “in vitro”, can be considered to be predictive of the effects of use of the same substances “in vivo”. […] The samples have been dissolved directly in the culture medium. Each sample has been tested in duplicate and the experiments have been repeated twice. The parameters of interest have been determined after 24 hours on separate plates. Untreated cell cultures have been used as controls. A commercially available kit (Sircol™, biodye science) which uses the capacity of the stain Sirius Red to interact with the basic side chains of the aminoacids present in collagen itself, has been used for collagen assays. De novo collagen synthesis has been evaluated in the culture medium following treatment with the test substances, following the protocol provided with the kit, and by using the calibration curve obtained employing the collagen standard contained in turn in the kit. Evaluation of the effects of the substances tested, at the various concentrations, on fibroblast cultures, has been expressed as the absolute and percent increase or decrease of collagen and elastin expression, with respect to the corresponding control culture, after 24 hours of incubation. The percentage difference increase or decrease of the effects exerted by CA and NAG, at corresponding concentrations, have then been calculated, with consequent evaluation of their potential statistical significance by means of the test Student “t” test.

## CCCCCCCCCCCCOS(=O)(=O)[O-].[Na+] [SDS, sodium dodecylsulphate]
[1]
  mortality of the keratinocyte culture: 94.28%
[2]
  cell mortality: 96.05%

## Hyaluronic acid [HA]
[3]
  half-life in the skin: less than 24 hours
Mouse skin fibroblasts
  effect on DNA synthesis: causes transient DNA synthesis
[4]
  expression of extracellular matrix metalloproteases: clear increase

## anhydrous sodium sulphate [ASS]
[5]; ASS 0.16 mg/ml
  HA (%) (Diff. from baseline): +6.07%
  HA(ng/well) (Diff. from baseline): 35 ng/well
[5]; ASS 0.32 mg/ml
  HA (%) (Diff. from baseline): +7.99%
  HA(ng/well) (Diff. from baseline): 46 ng/well
[5]; ASS 0.48 mg/ml
  HA (%) (Diff. from baseline): +9.38%
  HA(ng/well) (Diff. from baseline): 54 ng/well
[5]; ASS 0.64 mg/ml
  HA (%) (Diff. from baseline): −25.87%
  HA(ng/well) (Diff. from baseline): −149 ng/well
[5]; ASS 0.80 mg/ml
  HA (%) (Diff. from baseline): +1.91%
  HA(ng/well) (Diff. from baseline): 11 ng/well
[5]; ASS alone 0.16-0.80 mg/ml
  effect on HA expression (in words): exerts no stimulation nor inhibition
[6]; ASS 0.16 mg/ml
  Elastin (%) (Diff. from baseline): −2.33%
  Elastin (μg/ml) (Diff. from baseline): -0.11 µg/mL
  Elastin (μg/ml) (Mean ± st. dev.): 4.61 ± 0.41 µg/mL
[6]; ASS 0.32 mg/ml
  Elastin (%) (Diff. from baseline): +1.98%
  Elastin (μg/ml) (Diff. from baseline): +0.07 μg/ml
  Elastin (μg/ml) (Mean ± st. dev.): 4.79 ± 0.44 µg/mL
[6]; ASS 0.48 mg/ml
  Elastin (%) (Diff. from baseline): +9.75%
  Elastin (μg/ml) (Diff. from baseline): +0.46 μg/ml
  Elastin (μg/ml) (Mean ± st. dev.): 5.18 ± 0.36 µg/mL
[6]; ASS 0.64 mg/ml
  Elastin (%) (Diff. from baseline): −3.81%
  Elastin (μg/ml) (Diff. from baseline): -0.18 µg/mL
  Elastin (μg/ml) (Mean ± st. dev.): 4.54 ± 0.47 µg/mL
[6]; ASS 0.80 mg/ml
  Elastin (%) (Diff. from baseline): −3.39%
  Elastin (μg/ml) (Diff. from baseline): +0.16 μg/ml
  Elastin (μg/ml) (Mean ± st. dev.): 4.83 ± 0.30 µg/mL
[6]; ASS alone 0.16-0.80 mg/ml
  effect on elastin expression (in words): incapable of exerting any effect, either stimulatory or inhibitory
[7]; ASS 0.16 mg/ml
  Collagen (%) (Diff. from baseline): −8.45%
  Collagen(μg/ml) (Diff. from baseline): -0.43 µg/mL
[7]; ASS 0.32 mg/ml
  Collagen (%) (Diff. from baseline): +3.93%
  Collagen(μg/ml) (Diff. from baseline): +0.20 μg/ml
[7]; ASS 0.48 mg/ml
  Collagen (%) (Diff. from baseline): +1.77%
  Collagen(μg/ml) (Diff. from baseline): +0.09 μg/ml
[7]; ASS 0.64 mg/ml
  Collagen (%) (Diff. from baseline): +9.03%
  Collagen(μg/ml) (Diff. from baseline): +0.46 μg/ml
[7]; ASS 0.80 mg/ml
  Collagen (%) (Diff. from baseline): −3.34%
  Collagen(μg/ml) (Diff. from baseline): -0.17 µg/mL
[7]; ASS alone 0.16-0.80 mg/ml
  effect on collagen expression (in words): exerts no type of stimulation or inhibition
